Experimental data published in US6933277B2, “Prevention of fetal alcohol syndrome and neuronal cell death with ADNF polypeptides” (The United States of America as represented by the …, priority 1999, dated 2005).
No end group written: not given here.

Key:
[1] = system: model for FAS, C57B 1/6J mouse strain; assay: Fetal demise at E18 in mouse model for FAS (alcohol on E8, peptide pretreatment); assay type: in vivo; conditions: for percentage of fetal demises: E18, pretreatment 30 min prior to alcohol (25% ethyl alcohol i.p., 0.030 ml/g) on E8, NAPVSIPQ 20 μg, SALLRSIPA 20 μg, VIP 1 μg, combination 20 μg+20 μg; for alcohol toxicity as measured by fetal demises and weight (summary): summary of fetal demises and weights (fetal and fetal brain) at E18
Experimental: (§1) C57-B16J female mice (Jackson Labs) were kept under a 12 h light, 12 h dark regimen with food and water available at all times. The mice received humane animal care in compliance with the “Guideline for Care and Use of Experimental Animals.” Six week old females (21-24 grams) were mated with C57-B 16J males for 4 h. The presence of a vaginal plug was considered day 0 pregnancy.
(§2) A published well-delineated model for FAS was followed (Webster, W. S., et al., Neurobehav Tox, 2:227-34 (1980)). Animals were injected (intraperitoneal) on E8 with […] in saline (v/v) or vehicle alone at 0.030 ml/g body weight. Pretreatment with VIP and ADNF peptides (NAPVSIPQ (SEQ ID NO:2), SALLRSIPA (SEQ ID NO:1), NAPVSIPQ (SEQ ID NO:2)+SALLRSIPA (SEQ ID NO:1)) were given 30 min prior to alcohol. Dosages of the neuropeptides were NAPVSIPQ (SEQ ID NO:2) (20 μg) and (40 μg), SALLRSIPA (SEQ ID NO:1) (20 μg), NAPVSIPQ (SEQ ID NO:2) (20 μg)+(20 μg); VIP (1 μg). A NAPVSIPQ (SEQ ID NO:2)+SALLRSIPA (SEQ ID NO:1) control group without alcohol was studied. NAPVSIPQ (SEQ ID NO:2) was diluted in 50 μl DMSO and diluted in filtered Dulbecco's phosphate buffered saline (DPBS). SAL was dissolved and diluted in filtered DPBS. VIP was dissolved in […] glacial acetic acid and diluted in HPLC water and DPBS. Since the animals receiving alcohol were incapacitated for approximately 6 h following injection, food and water were withheld from all groups for the initial 6 hours after injection, to allow accurate assessment of fetal weights.
(§3) At E18 (embryonic gestation day 18), the number of live and demised fetuses was determined. Fetal weights and fetal brain weights were obtained for each fetus in the litter. The mean fetal weights were determined for each mother and this was used for statistical analysis.
(§4) The mean litter pup and fetal brain weight was calculated, with the litter mean used for all statistical analysis. Percent demises were calculated by dividing the number of demises by the total number of fetuses (live plus demises). Statistical analysis included ANOVA for continuous variables, Mann-Whitney U for nonparametic data, Chi square for categorical variables or Fisher's exact test where appropriate [Statview 4.5 (Abacus Concepts, Inc., Berkeley, Calif.)] with p<0.05 considered significant. Results are presented as mean±standard error unless specified.
(§5) The C57B 1/6J mouse strain provided a well-characterized model for FAS. Previous work with this strain has defined the effects of dosage and embryonic timing on maternal serum alcohol levels and embryonic effects (Webster et al., Neurobehav Tox, 2:227-34 (1980)), incorporated herein by reference. Intra-peritoneal treatment allowed for defined and reproducible dosages. […] The mice were injected with 25% ethyl alcohol in saline (v/v) or vehicle alone at 0.030 ml/g maternal body weight at 0900 on E8. Pretreatment with the study peptides was given 30 minutes prior to alcohol administration. […]
To assess the protective effects of the ADNF peptides in the most severe form of stress, the number of fetal death was determined. […]

[2] = system: model for FAS, C57B 1/6J mouse strain; assay: Fetal weights and fetal brain weights at E18 in mouse model for FAS; assay type: in vivo; conditions: pretreatment 30 min prior to alcohol on E8; for fetal weights (alcohol-induced growth restriction): NAPVSIPQ 20 μg, VIP 1 μg
Experimental: as §1, §2, §3, §4, §5
In the surviving E18 fetuses, fetal and fetal brain weights were evaluated to assess the protective effects of the ADNF peptides. […]

[3] = stated without test; cited from earlier work
[4] = surviving E18 fetuses, SALLRSIPA 20 μg, combination 20 μg+20 μg

Row | Substance | percentage of fetal demises [1] | alcohol toxicity as measured by fetal demises and weight (summary) [1] | alcohol-induced growth restriction ([2]; double dosage of NAPVSIPQ (40 μg), E18) | fetal weights (alcohol-induced growth restriction) [2, 4] | crossing of the blood brain barrier [3] | fetal brain weights (alcohol-induced fetal brain weight reduction) [2, 4]
1 | NAPVSIPQ [Asn-Ala-Pro-Val-Ser-Ile-Pro-Gln] | prevented the demises seen with alcohol | moderately prevented alcohol toxicity | moderately prevented the alcohol-induced growth restriction | moderately prevented the alcohol-induced growth restrictions | cross the blood brain barrier | –
2 | SALLRSIPA [Ser-Ala-Leu-Leu-Arg-Ser-Ile-Pro-Ala] | unable to bring the fetal demise rate to control levels | moderately prevented alcohol toxicity | – | did not prevent the alcohol-induced fetal weight reduction | cross the blood brain barrier | moderately prevented the alcohol-induced fetal brain weight reduction
3 | vasoactive intestinal peptide (HSDAVFTDNYTRLRKQMAVKKYLNSILN; ends and bridges not checked; UniProt P01282 125-152, looked up) [VIP, neuropeptide that is a regulator of early postimplantation mouse embryonic growth, reference compound] | slightly improved the fetal demise rate | – | – | improved embryonic weights; however, the effect was intermediate | – | –
